Data as given in article doi:10.1101/2021.11.30.469594v1 (biorxiv, 2021).
Like-named read-outs stand apart in the source and are kept apart here.

Biological target: PRPK/TPRKB complex (also PRPK/PRPKB; PRPK aka TP53RK) (Homo sapiens, UniProt Q96S44)
Assay: ITC
Format: binding

PRPK/TPRKB complex (also PRPK/PRPKB; PRPK aka TP53RK), sequence (Q96S44 whole entry, other chains not shown): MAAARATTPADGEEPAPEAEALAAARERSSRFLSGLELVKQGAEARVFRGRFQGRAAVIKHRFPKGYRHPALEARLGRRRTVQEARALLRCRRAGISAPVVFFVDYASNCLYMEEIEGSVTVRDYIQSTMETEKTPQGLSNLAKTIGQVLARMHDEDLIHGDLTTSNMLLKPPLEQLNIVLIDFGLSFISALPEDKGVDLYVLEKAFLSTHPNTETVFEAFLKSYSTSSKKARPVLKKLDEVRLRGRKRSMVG

Structure (SMILES)	Kd [µM]	further results
Nc1ccc2c(c1)C(=O)N(C1CCC(=O)NC1=O)C2=O (centres unmarked) [Compound2, 5-amino-2-(2,6-dioxopiperidin-3-yl)isoindoline-1,3-dione]	6.1 ± 0.5	
C[C@@]1(N2C(=O)c3cccc(O)c3C2=O)CCC(=O)NC1=O [DB-A5, (R)-4-hydroxy-2-(3-methyl-2,6-dioxopiperidin-3-yl)isoindoline-1,3-dione]		Kd (pH […] °C, […] DMSO, crystal structure solved here, ATP site): 1.8 ± 0.4 µM
COc1cccc2c1C(=O)N([C@]1(C)CCC(=O)NC1=O)C2=O [DB-A5-OMe, (R)-4-methoxy-2-(3-methyl-2,6-dioxopiperidin-3-yl)isoindoline-1,3-dione]	> 1000	
C[C@]1(N2C(=O)c3cccc(O)c3C2=O)CCC(=O)NC1=O [DB-B5, (S)-4-hydroxy-2-(3-methyl-2,6-dioxopiperidin-3-yl)isoindoline-1,3-dione]		Kd (pH […] °C, […] DMSO): 27 µM
O=C1CCC(N2C(=O)c3cccc(O)c3C2=O)C(=O)N1 (centres unmarked) [TXM-01-027-1, 2-(2,6-dioxopiperidin-3-yl)-4-hydroxyisoindoline-1,3-dione]	2.2	
